Assay [1] relates to Candida albicans. Description: Antimicrobial activity against Candida albicans SC5314 assessed as reduction of biofilm metabolic activity in in vitro catheter-associated rat model by XTT assay. The format is functional. (In general: Tetrazolium assays rely on reduction of a dye to a coloured formazan, in cell work by metabolically active cells.)
Assay [2] deals with Candida albicans. The assay is described as follows: Antimicrobial activity against Candida albicans SC5314 biofilms infected in Sprague-Dawley rat implanted subcutaneously with catheter fragments challenged Candida cells assessed as […] at 10 mg/kg, ip qd for 7 days (Rvb=2.92 +/- 0.34 log10 CFU/catheter fragment). It is filed as functional. To be noted: […].

The test system of assay [3] is Candida albicans. Description: Antimicrobial activity against Candida albicans SC5314 assessed as reduction of biofilm metabolic activity in in vitro catheter-associated rat model at 64 ug/ml by XTT assay. It is filed as functional, organism-based.
For assay [4], the system named is Candida albicans. Description: Antimicrobial activity against Candida albicans SC5314 biofilms infected in Sprague-Dawley rat implanted subcutaneously with catheter fragments challenged Candida cells assessed as […] at 125 mg/kg, ip qd for 7 days (Rvb=2.92 +/- 0.34 log10 CFU/catheter fragment). The format is functional. To be noted: […].

In brackets after ≈: the same amount, converted by molar mass. Activity calls are given as the source filed them. The rule behind the calls is not given here. *1 amine or outer side, *2 acyl side, *3 side chain or, on linkers, in order; H or OH if unused. Where a SMILES comes first, the peptide text is derived from it. Bridges are numbered along the chain shown (N, C = ends). [ ]: non-standard residue; d: D form. The star is where a group is joined. pTerphenylCO(4''-OnC5H11) = CCCCCOc1ccc(-c2ccc(-c3ccc(C(=O)*)cc3)cc2)cc1; Orn(4R-OH,5R-OH) = O=C([C@H](C[C@@H](O)[C@@H](O)N[*:3])N[*:1])[*:2]; hTyr(3S-OH,4S-OH) = N[C@H](C(=O)O)[C@H](O)[C@@H](O)c1ccc(O)cc1; Pro(3S-OH,4S-Me) = C[C@H]1CN[C@H](C(=O)O)[C@H]1O; Hyp = O=C(O)[C@@H]1C[C@@H](O)CN1

As to `CCCCCOc1ccc(-c2ccc(-c3ccc(C(=O)N[C@H]4C[C@@H](O)[C@@H](O)NC(=O)[C@@H]5[C@@H](O)[C@@H](C)CN5C(=O)[C@H]([C@@H](C)O)NC(=O)[C@H]([C@H](O)[C@@H](O)c5ccc(O)cc5)NC(=O)[C@@H]5C[C@@H](O)CN5C(=O)[C@H]([C@@H](C)O)NC4=O)cc3)cc2)cc1` [ANIDULAFUNGIN] ({pTerphenylCO(4''-OnC5H11)}-[Orn(4R-OH,5R-OH)]T[Hyp][hTyr(3S-OH,4S-OH)]T[Pro(3S-OH,4S-Me)]; lactam 1-C), in the assay on Candida albicans [1], the MIC is 0.25 µg/mL (≈ 0.219 µM). The log10cfu in the assay with Candida albicans [2] was 2.14.

On to `OC(Cn1cncn1)(Cn1cncn1)c1ccc(F)cc1F` [FLUCONAZOLE], for which, in the assay with Candida albicans [3], the result was inactive. Moreover, the log10cfu in the assay on Candida albicans [4] amounted to 3.01.
